Experimental data: the NIST ThermoML archive (doi:10.1021/je100228t)

Conditions: for surface tension liquid-gas: Maximal bubble pressure; for mass density: 101.33 kPa, Liquid

CCn1cc[n+](C)c1.N#C[B-](C#N)(C#N)C#N [1-ethyl-3-methylimidazolium tetracyanoborate]
Conditions	mass density [kg/m3]	surface tension liquid-gas [mN/m]
283.15 K	1048.37	49.4
288.15 K	1044.37	48.9
293.15 K	1040.38	48.2
298.15 K	1036.41	47.8
303.15 K	1032.46	47.6
308.15 K	1028.55	47.1
313.15 K	1024.66	46.8
318.15 K	1020.78	46.4
323.15 K	1016.95	46.2
328.15 K	1013.11	45.5
333.15 K	1009.32	45
338.15 K	1005.54	44.8
